In patent publication US12102087B2 (priority 2012, dated 2024):
Where two headings read alike, the source gives them in different places.

Experiments:
Format in all cases: in vivo
Phytophthora infestans = test: whole plant or invertebrate; details: for pest or weed control at 0.2 ppm: application rate 0.2 ppm a.i.
Venturia inaequalis = test: Venturia test (apples)/preventive; details: for pest or weed control at 2 ppm: application rate 2 ppm a.i.; for pest or weed control at 4 ppm: application rate 4 ppm a.i.
Source text: (§1) A synergistic effect of fungicides is always present when the fungicidal activity of the active compound combinations exceeds the total of the activities of the active compounds when applied individually. The expected activity for a given combination of two active compounds can be calculated as follows (cf. Colby, S. R., “Calculating Synergistic and Antagonistic Responses of Herbicide Combinations”, Weeds 1967, 15, 20-22):
(§2) If • X is the efficacy when active compound A is applied at an application rate of m ppm (or g/ha), • Y is the efficacy when active compound B is applied at an application rate of n ppm (or g/ha), • E is the efficacy when the active compounds A and B are applied at application rates of m and n ppm (or g/ha), respectively, and
Venturia test (apples)/preventive • Solvent: 24.5 parts by weight of acetone • 24.5 parts by weight of dimethylacetamide • Emulsifier: 1 part by weight of alkylaryl polyglycol ether
(§3) To produce a suitable preparation of active compound, 1 part by weight of active compound is mixed with the stated amounts of solvent and emulsifier, and the concentrate is diluted with water to the desired concentration.
To test for preventive activity, young plants are sprayed with the preparation of active compound at the stated rate of application. After the spray coating has dried on, the plants are inoculated with an aqueous conidia suspension of the causal agent of apple scab (Venturia inaequalis) and then remain for 1 day in an incubation cabinet at approximately 20° C. and a relative atmospheric humidity of 100%.
The plants are then placed in a greenhouse at approximately 21° C. and a relative atmospheric humidity of approximately 90%.
The test is evaluated 10 days after the inoculation. 0% means an efficacy which corresponds to that of the untreated control, while an efficacy of 100% means that no disease is observed.

Sphaerotheca fuliginea = test: Sphaerotheca test (cucumbers)/preventive
Source text: as §1, §2
Sphaerotheca Test (Cucumbers)/Preventive • Solvent: 24.5 parts by weight of acetone • 24.5 parts by weight of dimethylacetamide • Emulsifier: 1 part by weight of alkylaryl polyglycol ether
as §3
(§4) To test for preventive activity, young plants are sprayed with the preparation of active compound at the stated rate of application. After the spray coating has dried on, the plants are inoculated with an aqueous spore suspension of Sphaerotheca fuliginea. The plants are then placed in a greenhouse at approximately 23° C. and a relative atmospheric humidity of approximately 70%.
The test is evaluated 7 days after the inoculation. 0% means an efficacy which corresponds to that of the untreated control, while an efficacy of 100% means that no disease is observed.

Alternaria solani = test: Alternaria test (tomatoes)/preventive; details: for pest or weed control at 20 ppm: application rate 20 ppm a.i.
Source text: as §1, §2
Alternaria Test (Tomatoes)/Preventive • Solvent: 24.5 parts by weight of acetone • 24.5 parts by weight of dimethylacetamide • Emulsifier: 1 part by weight of alkylaryl polyglycol ether
as §3
as §4, with “Alternaria solani.” for “Sphaerotheca fuliginea.”, “an incubation cabinet” for “a greenhouse”, “20°” for “23°”, “100%.” for “approximately 70%.”
The test is evaluated 3 days after the inoculation. 0% means an efficacy which corresponds to that of the untreated control while an efficacy of 100% means that no disease is observed.

[1] = Phytophthora infestans, 72 h, read-out: Efficacy in % found, Table 4
[2] = Alternaria solani, 72 h, Table 2, read-out: Efficacy in % found
[3] = Table 9, application rate 50 ppm a.i.
[4] = Table 6, application rate 2.5 ppm a.i.
[5] = Venturia inaequalis, 240 h, Table 10, read-out: Efficacy in % found
[6] = Table 7, application rate 4 ppm a.i.
[7] = Phytophthora infestans, 72 h, read-out: Efficacy in % found, Table 5, application rate 2.5 ppm a.i.
[8] = Venturia inaequalis, 240 h, Table 11, application rate 0.5 ppm a.i., read-out: Efficacy in % found
[9] = Table 3, application rate 1.25 ppm a.i.
[10] = Table 3, application rate 2.5 ppm a.i.
[11] = Table 7, application rate 1 ppm a.i.
[12] = Table 3, application rate 5 ppm a.i.
[13] = Table 5, application rate 2.5 ppm a.i.
[14] = Phytophthora infestans, 72 h, read-out: Efficacy in % found, Table 3, application rate 2.5 ppm a.i.

Cc1ccc(-c2c(Cl)nc(C#N)n2S(=O)(=O)N(C)C)cc1 [3.4, cyazofamid]
pest or weed control at 0.2 ppm (Phytophthora infestans; [1]): 8%

O=C(Nc1ccccc1-c1ccc(Cl)cc1)c1cccnc1Cl [2.2, boscalid]
pest or weed control at 20 ppm (Venturia inaequalis; Venturia inaequalis, 240 h, Table 11, application rate 20 ppm a.i., read-out: Efficacy in % found): 85%
Efficacy in % found (Sphaerotheca fuliginea; Table 8, application rate 20 ppm a.i.): 62%
Efficacy in % found (Sphaerotheca fuliginea; Table 8, application rate 40 ppm a.i.): 86%

N#Cc1c(Cl)c(Cl)c(Cl)c(C#N)c1Cl [5.4, chlorothalonil]
pest or weed control at 20 ppm (Venturia inaequalis; Venturia inaequalis, 240 h, Table 12, application rate 20 ppm a.i., read-out: Efficacy in % found): 14%
pest or weed control at 20 ppm (Alternaria solani; [2]): 5%

metiram [5.25]
Efficacy in % found (Venturia inaequalis; Table 13, application rate 100 ppm a.i.): 55%
Efficacy in % found (Sphaerotheca fuliginea; [3]): 29%
Efficacy in % found (Phytophthora infestans; [4]): 15%

COC(c1ccc(Cl)cc1Cl)C(C)NC(=O)c1cn(C)nc1C(F)F (stereo not shown) [2.27, N-[1-(2,4-dichlorophenyl)-1-methoxypropan-2-yl]-3-(difluoromethyl)-1-methyl-1H-pyrazole-4-carboxamide]
pest or weed control at 2 ppm (Venturia inaequalis; [5]): 31%
pest or weed control at 4 ppm (Venturia inaequalis; [5]): 93%
Efficacy in % found (Sphaerotheca fuliginea; [6]): 81%
pest or weed control at 2.5 ppm (Phytophthora infestans; [7]): 0%
pest or weed control at 10 ppm (Phytophthora infestans; Phytophthora infestans, 72 h, read-out: Efficacy in % found, Table 5, application rate 10 ppm a.i.): 8%

CSC1=N[C@@](C)(c2ccccc2)C(=O)N1Nc1ccccc1 [3.10, fenamidone]
pest or weed control at 0.5 ppm (Phytophthora infestans; Phytophthora infestans, 72 h, read-out: Efficacy in % found, Table 4, application rate 0.5 ppm a.i.): 3%

CO/N=C(/C1=NOCCO1)c1ccccc1Oc1ncnc(Oc2ccccc2Cl)c1F [3.12, fluoxastrobin]
pest or weed control at 0.5 ppm (Venturia inaequalis; [8]): 44%

OC(Cc1ccccc1Cl)(Cn1nc[nH]c1=S)C1(Cl)CC1 (stereo not shown) [1.41, prothioconazole]
Efficacy in % found (Sphaerotheca fuliginea; Table 8, application rate 2 ppm a.i.): 19%

O=C1c2ccccc2C(=O)N1SC(Cl)(Cl)Cl [5.16, folpet]
pest or weed control at 10 ppm (Alternaria solani; Alternaria solani, 72 h, Table 2, application rate 10 ppm a.i., read-out: Efficacy in % found): 0%

CCCCCCCCc1c(CC)nc2ncnn2c1N [3.1, ametoctradin]
Efficacy in % found (Phytophthora infestans; [9]): 15%
Efficacy in % found (Phytophthora infestans; [10]): 22%

Cn1cc(C(=O)Nc2ccc(F)cc2-c2ccc(Cl)c(Cl)c2)c(C(F)F)n1 [2.1, bixafen]
Efficacy in % found (Venturia inaequalis; Table 10, application rate 1 ppm a.i.): 84%
Efficacy in % found (Sphaerotheca fuliginea; [11]): 10%

Cn1c(=O)c2sc3c(=O)n(C)c(=O)c3sc2c1=O [15.60, 2,6-dimethyl-1H,5H-[1,4]dithiino[2,3-c:5,6-c′]dipyrrole-1,3,5,7(2H,6H)-tetrone]
pest or weed control at 50 ppm (Venturia inaequalis; Venturia inaequalis, 240 h, Table 12, application rate 50 ppm a.i., read-out: Efficacy in % found): 24%
pest or weed control at 50 ppm (Alternaria solani; Alternaria solani, 72 h, Table 2, application rate 50 ppm a.i., read-out: Efficacy in % found): 32%

O=C(NCCc1ncc(C(F)(F)F)cc1Cl)c1ccccc1C(F)(F)F [2.6, fluopyram]
pest or weed control at 4 ppm (Venturia inaequalis; [5]): 21%
pest or weed control at 1 ppm (Alternaria solani; Alternaria solani, 72 h, Table 1, application rate 1 ppm a.i., read-out: Efficacy in % found): 48%
Efficacy in % found (Sphaerotheca fuliginea; [6]): 19%

CCCCCOC(=O)Nc1cccc(CON=C(c2ccccc2)c2nnnn2C)n1 [15.90, pentyl {6-[({[(1-methyl-1H-tetrazol-5-yl)(phenyl)methylidene]amino}oxy)methyl]pyridin-2-yl}carbamate]
pest or weed control at 0.2 ppm (Phytophthora infestans; [1]): 10%

Cc1cc(C)nc(Nc2ccccc2)n1 [7.7, pyrimethanil]
pest or weed control at 20 ppm (Alternaria solani; [2]): 32%

[Cl-].[Cu+2].[Cu+2].[OH-].[OH-].[OH-] [5.8, copper oxychloride]
Efficacy in % found (Venturia inaequalis; Table 13, application rate 50 ppm a.i.): 8%
Efficacy in % found (Sphaerotheca fuliginea; [3]): 10%
Efficacy in % found (Phytophthora infestans; [4]): 0%

fosetyl-aluminium [15.24]
Efficacy in % found (Phytophthora infestans; [10]): 0%
Efficacy in % found (Phytophthora infestans; [12]): 0%

CC(C)[C@H](NC(=O)O)C(=O)N[C@H](C)c1nc2ccc(F)cc2s1 [9.1, benthiavalicarb]
Efficacy in % found (Phytophthora infestans; Table 4, application rate 0.5 ppm a.i.): 52%

OP(O)O [15.41, phosphorous acid]
Efficacy in % found (Phytophthora infestans; [10]): 0%
Efficacy in % found (Phytophthora infestans; [12]): 13%

[Cu+2].[OH-].[OH-] [5.5, copper hydroxide]
Efficacy in % found (Venturia inaequalis; Table 13, application rate 20 ppm a.i.): 25%
Efficacy in % found (Sphaerotheca fuliginea; Table 9, application rate 10 ppm a.i.): 29%
Efficacy in % found (Phytophthora infestans; [4]): 18%

metalaxyl-M (mefenoxam) [12.10]
Efficacy in % found (Phytophthora infestans; [9]): 10%
Efficacy in % found (Phytophthora infestans; [10]): 36%

Cc1c(Br)c2ccc(F)cc2n1S(=O)(=O)c1ncn(S(=O)(=O)N(C)C)n1 [3.2, amisulbrom]
Efficacy in % found (Phytophthora infestans; Table 4, application rate 1 ppm a.i.): 19%

CC(C)C1C2CCC1c1c(NC(=O)c3cn(C)nc3C(F)F)cccc12 (stereo not shown) [2.12, isopyrazam]
Efficacy in % found (Sphaerotheca fuliginea; [11]): 19%
Efficacy in % found (Sphaerotheca fuliginea; Table 7, application rate 2 ppm a.i.): 57%
Efficacy in % found (Phytophthora infestans; [13]): 0%

propineb [5.29]
Efficacy in % found (Alternaria solani; Table 2, application rate 5 ppm a.i.): 0%

Cc1ccc(C(C)NC(=O)[C@@H](NC(=O)OC(C)C)C(C)C)cc1 (stereo partly shown) [9.4, iprovalicarb]
Efficacy in % found (Phytophthora infestans; Table 4, application rate 2 ppm a.i.): 9%

CC(C)CC(C)c1sccc1NC(=O)c1cn(C)nc1C(F)(F)F (stereo not shown) [2.21, penthiopyrad]
pest or weed control at 2 ppm (Venturia inaequalis; [5]): 8%
pest or weed control at 0.5 ppm (Alternaria solani; Alternaria solani, 72 h, Table 1, application rate 0.5 ppm a.i., read-out: Efficacy in % found): 39%
pest or weed control at 2.5 ppm (Phytophthora infestans; [7]): 0%

O=[N+]([O-])c1cc(C(F)(F)F)c(Cl)c([N+](=O)[O-])c1Nc1ncc(C(F)(F)F)cc1Cl [14.4, fluazinam]
pest or weed control at 2.5 ppm (Phytophthora infestans; [14]): 0%

COC(=O)N(OC)c1ccccc1COc1ccn(-c2ccc(Cl)cc2)n1 [3.17, pyraclostrobin]
pest or weed control at 0.5 ppm (Venturia inaequalis; [8]): 19%

CO/C=C(/C(=O)OC)c1ccccc1Oc1cc(Oc2ccccc2C#N)ncn1 [3.3, azoxystrobin]
Efficacy in % found (Venturia inaequalis; Table 11, application rate 0.25 ppm a.i.): 38%

CON=C(C(=O)OC)c1ccccc1CON=C(C)c1cccc(C(F)(F)F)c1 [3.22, trifloxystrobin]
pest or weed control at 0.5 ppm (Venturia inaequalis; [8]): 77%

CCNC(=O)NC(=O)/C(C#N)=N/OC [15.9, cymoxanil]
pest or weed control at 2.5 ppm (Phytophthora infestans; [14]): 0%
pest or weed control at 5 ppm (Phytophthora infestans; Phytophthora infestans, 72 h, read-out: Efficacy in % found, Table 3, application rate 5 ppm a.i.): 0%

Cn1cc(C(=O)Nc2ccccc2-c2cc(F)c(F)c(F)c2)c(C(F)F)n1 [2.8, fluxapyroxad]
Efficacy in % found (Venturia inaequalis; Table 10, application rate 0.5 ppm a.i.): 25%
Efficacy in % found (Sphaerotheca fuliginea; [11]): 38%
Efficacy in % found (Phytophthora infestans; [13]): 0%

Cn1cc(C(=O)Nc2cccc3c2[C@@H]2CC[C@H]3C2=C(Cl)Cl)c(C(F)F)n1 (racemic) [2.29, benzovindiflupyr]
Efficacy in % found (Sphaerotheca fuliginea; Table 7, application rate 0.5 ppm a.i.): 0%
Efficacy in % found (Phytophthora infestans; [13]): 0%

propamocarb hydrochloride [10.10]
Efficacy in % found (Sphaerotheca fuliginea; Table 9, application rate 200 ppm a.i.): 0%
Efficacy in % found (Sphaerotheca fuliginea; Table 9, application rate 400 ppm a.i.): 0%
Efficacy in % found (Phytophthora infestans; [4]): 0%

COc1ccc(C(=CC(=O)N2CCOCC2)c2ccc(Cl)cc2)cc1OC [9.2, dimethomorph]
pest or weed control at 1 ppm (Phytophthora infestans; Phytophthora infestans, 72 h, read-out: Efficacy in % found, Table 4, application rate 1 ppm a.i.): 20%

CC(C)(C)C(O)(CCc1ccc(Cl)cc1)Cn1cncn1 (stereo not shown) [1.47, tebuconazole]
pest or weed control at 2 ppm (Venturia inaequalis; Venturia inaequalis, 240 h, Table 11, read-out: Efficacy in % found): 11%
